# Source: patent US12162901B2, “N-acetylated sialic acids and related sialosides” (priority 2016, dated 2024)
# How the values were obtained:
# influenza C virus = settings: background statement; cited from earlier work
# BJA-B K20 cells [1] = assay: Feeding of free sialic acids to BJA-B K20 cells, DMB derivatization and HPLC of membrane sialic acids; settings: 1 mM for 3 days; sialic acids released with Vibrio cholerae neuraminidase
# BJA-B K20 cells [2] = assay: Feeding of free sialic acids to BJA-B K20 cells, PToV probes, flow cytometry; assay type: cell-based, human; settings: 1 mM free sialic acid, three days of feeding
# human CD22-Fc/Siglec-2 = assay: Feeding of free sialic acids to BJA-B K20 cells, probing with human CD22-Fc, flow cytometry; assay type: cell-based; settings: 3 mM, 3 days of feeding
# Description: Cell Culture and Sugar Supplementation.
# Flow Cytometry. Cells were washed with PBS and incubated with 10 μg/mL of PToV probes in PBS with 1% BSA and 10 mM EDTA for 30 minutes on ice. Subsequently, cells were washed with PBS and incubated with PE goat anti-human IgG antibody for 30 minutes on ice. After an additional washing step, the cells were analyzed by FACSCalibur (BD).
# After 3 days of feeding, BJA-B K20 cells were probed with human CD22-Fc/Siglec-2 to detect ligands (FIG. 7). […] However, when the cells were grown in the presence of Neu5Ac9NAc, the expression of the CD22 ligand was minimal (FIG. 7C). […] This supports previous observations that human CD22-Fc recognizes α2-6-linked sialosides with Neu5Ac or N-glycolylneuraminic acid (Neu5Gc) as the preferred naturally existing sialic acid form and 9-O-acetyl modification on sialic acid blocks the binding.
smiles,measurement,setting,value
"CC(=O)NC[C@@H](O)[C@@H](O)[C@@H]1OC(O)(C(=O)O)C[C@H](O)[C@H]1NC(C)=O (stereo partly drawn) [Neu5Ac9NAc, 5,9-Diacetamido-3,5,9-Trideoxy-D-glycero-D-galacto-2-nonulopyranosylonic Acid]",binding to influenza C virus and fate under hemagglutinin-esterase,influenza C virus,"mimic Neu5,9Ac2 in binding to influenza C virus without being destroyed by esterase activity"
same,incorporation on the cell membrane (DMB-HPLC),BJA-B K20 cells [1],showed incorporation
same,cell surface incorporation detected with PToV probe,BJA-B K20 cells [2],detected on the cell surface
same,expression of CD22 ligand on fed cells,human CD22-Fc/Siglec-2,minimal
